According to patent US20110207745A1 (priority 2009, published 2011):
≈ marks a conversion by molar mass, not a printed value. Read-outs that look alike come from different tables or passages of the source.

Tests used:
[1] = HPLC area %, listed as Amorphous Mono-HCl Salt of Compound A1
Experimental: (§1) Stress Experiments. Solids are stressed under different temperature or relative humidity (RH) environments for a measured time period. Specific RH values are achieved by placing the sample inside sealed chambers containing saturated salt solutions, as known in the art. The salt solutions are selected and prepared following an ASTM standard procedure. Samples are analyzed by XRPD immediately after removal from the stress environment.
Analyses are carried out on an Agilent® model 1100 high performance liquid chromatograph using gradient elution on a reversed phase column utilizing ultraviolet (UV) detection. Approximately 25 mg of the sample is weighed accurately and dissolved in methanol/water/trifluoroacetic acid (35:65:0.05) to a volume of 50 mL. The sample solution is analysed using the conditions specified below:
The content of the drug and related substances are quantified by area (%).
Chemical Stability. The chemical stability of Form I of the mono-HCl salt of Compound A1 was assessed by stressing the material at various temperature/relative humidity/light conditions, then analyzing by HPLC.
Chemical Stability Data. The chemical stability of a sample of Form I of the sesquifumarate salt of Compound A1 was assessed by stressing the material at various temperature/relative humidity/light conditions, then analyzing by HPLC.

[2] = Equilibrium solubility at 25° C.; assay type: physicochemical; conditions: thermodynamic from solid
Excerpt: (§2) Solubility and Dissolution Rate Data. […]

[3] = Solubility in simulated biological media; assay type: physicochemical; conditions: thermodynamic from solid, mean ± SD, n = 2
Excerpt: (§3) Solubility and Dissolution Rate Data.
as §2

[4] = Solubility in water and aqueous acid media; assay type: physicochemical; conditions: thermodynamic from solid
Experimental: A weighed sample is treated with aliquots of the test solvent at room temperature or elevated temperature. Complete dissolution of the test material is determined by visual inspection. Solubility is estimated based on the total solvent used to provide complete dissolution. The actual solubility may be greater than the value calculated because of the use of solvent aliquots that were too large or due to a slow rate of dissolution. […] If complete dissolution is achieved as a result of only one aliquot addition, the solubility is expressed as “greater than”. Solubility of a salt may be expressed as the mass of salt dissolved per unit volume of solution, (denoted as, for example, “mg/mL”), or as the free base equivalent (denoted as, for example, “mgA/mL”).
as §3

[5] = for Water content: 3 days, KF
Experimental: as §1
Modulated differential scanning calorimetry data are obtained on a TA Instruments differential scanning calorimeter 2920 equipped with a refrigerated cooling system (RCS). The sample is placed into an aluminum DSC pan, and the weight is accurately recorded. The pan is covered with a lid with is either crimped or uncrimped. MDSC data are obtained using a modulation amplitude of +/−0.8° C. and a 60 second period with an underlying heating rate of about 2° C./min. The temperature and the heat capacity are calibrated using indium metal and sapphire as the calibration standards, respectively. The reported glass transition temperature is obtained from the inflection of the step change in the reversible heat flow versus temperature curve.
Physical Stability. Physical stability measurements were performed on the amorphous form of the mono-HCl salt of Compound A1. The amorphous HCl salt prepared by spray drying was set down under two conditions (40° C./75% RH and 25° C./60% RH) for physical stability studies.
To investigate the impact of water on the amorphous mono-HCl salt, the material was stored at various RH conditions controlled by saturated salt solutions. Each material was checked by PLM (morphology), KF (water content), and mDSC (Tg value) after 3 days.

[6] = Dissociation constant (pKa); assay type: physicochemical; conditions: piperazine nitrogen of free base
[7] = Partition coefficient LogD; assay type: physicochemical; conditions: pH 7.4; free base
[8] = test system: rat; experiment: Punished responding procedure (modified Geller-Seifter conflict test); conditions: for Rate of Responding: Punished responding / Rate of Responding: Unpunished responding: 60 minute pretreatment
Excerpt: Method. In the conflict test, hungry animals were trained to lever-press for food delivery in a standard operant chamber under 2 conditions. In the first condition, referred to as the unsuppressed component, food was delivered on average after 17 lever-presses were made (also called a VR17 schedule of reinforcement). In the second condition, referred to as the suppressed component and signaled by flashing lights inside the operant chamber, food was also delivered following an average of 17 lever-presses, but electric shock was additionally delivered to the floor of the cage under a separate VR17 schedule. Daily sessions consisted of 5 alternating presentations of each component type: suppressed (3 minutes in duration) and unsuppressed (2 minutes in duration). The number of lever presses emitted in the suppressed component was obviously low relative to the unsuppressed component.
Drug Administration and Preparation. […] Monday and Wednesday were washout/baseline days.
Apparatus. Standard 2-lever operant chambers were used (Med Associates). The chambers were fitted with 2 retractable response levers and a stimulus lamp over each of the 2 levers. A pellet dispenser delivered 45 mg food pellets, (Bio Serv) to a cup located inside of the chamber below and between the 2 response levers. A lamp at the top and back of the chamber served as houselights. The grid floors of the operant chambers were interfaced to shock generators and scramblers (Med Associates). All events in the chambers were controlled and monitored by a microprocessor.
Procedures. There were 2 components in the procedure: 1) an unsuppressed responding component (unpunished) with 2 minutes in duration; and 2) a suppressed responding component (punished) with 3 minutes in duration.
In the unpunished component, the houselights and both stimulus lamps over the response levers were turned on, the lever on the left-hand side of the chamber extended, and a food pellet was delivered following an average of 17 responses on the lever in the chamber (range 3 to 40 responses)—a variable-ratio 17 schedule (VR17).
In the punished component (which followed the unpunished component), the right-hand lever was extended into the chamber; the stimulus lamps and houselights were turned on and off at 1 second intervals, in succession, which served as a cue for this component; and food was available under a VR17 schedule, but was accompanied by an electrical current (0.5 second duration) that was delivered to the grid floor of the chamber under an independent VR17 schedule. The level of the current was adjusted for each individual subject until responding was reduced in the punished component to a level that was about 5% to 10% that of the unpunished component, and ranged from 0.2 mA to 0.75 mA. Unpunished and punished components were separated by 10 second time-out periods in which both response levers were retracted and all stimulus lamps turned off. 2 minute unpunished and 3 minute punished components alternated until 5 of each were completed. Daily sessions always began with the unpunished responding component. […] Several doses were tested on a given test day in different subjects. Each dose, then, was tested in different sub-set of rats.
Data Analysis. The dependent variables recorded were the rate of responding in unpunished and punished components (total responses/total time under the component) and the number of shocks delivered.

[9] = 0.1M phosphate buffer, pH 7.5, aqueous buffer, initial pH 7.5
[10] = FeSSIF (fed-state simulated intestinal fluid), pH 5.03, fessif, initial pH 5.03
[11] = SGF (simulated gastric fluid), pH 1.3, simulated gastric fluid, initial pH 1.3
[12] = simulated gastric fluid (SGF), pH 1.3, simulated gastric fluid, SGF (simulated gastric fluid), initial pH 1.3

**Q.** Which results are given for `CCN(CC)C(=O)c1ccc([C@H](c2cccc(N)c2)N2CCN(Cc3ccc(F)cc3)CC2)cc1` [4-{(R)-(3-aminophenyl)[4-(4-fluorobenzyl)piperazin-1-yl]methyl}-N,N-diethylbenzamide]?
**A.** % Purity after 60° C./80% RH, 2 wks ([1]; 60° C./80% RH, 2 weeks): 94.4%; % Purity after 60° C./80% RH, 4 wks ([1]; 60° C./80% RH, 4 weeks): 94.5%; % Purity after 80° C., 2 wks ([1]; 80° C., 2 weeks): 98.7%; % Purity after 80° C., 4 wks ([1]; 80° C., 4 weeks): 98.6%; Purity after Photostability 3X ICH conditions ([1]; Photostability 3X ICH conditions): 82.3%; Initial Purity ([1]; initial, before storage): 98.8%; solubility thermodynamic ([2]; 0.1 M citrate buffer, aqueous buffer, pH 4.5, Citrate 0.1M): 15.6 mg/mL (≈ 32.9 mM); solubility thermodynamic ([2]; 0.1 M phosphate buffer, aqueous buffer, pH 7.8, Phosphate 0.1M): 0.16 mg/mL (≈ 0.337 mM); solubility thermodynamic ([2]; aqueous buffer, 0.1N NaOH): 0.092 mg/mL (≈ 0.194 mM); solubility thermodynamic ([2]; simulated gastric fluid, 0.1N HCl): 21.6 mg/mL (≈ 45.5 mM); solubility thermodynamic ([2]; Pure water): 8.7 mg/mL (≈ 18.3 mM); solubility at 3 h [3, 9]: 0.29 mg/mL (≈ 0.611 mM); solubility at 24 h [3, 9]: 0.1 mg/mL (≈ 0.211 mM); solubility at 3 h [3, 10]: 3.4 mg/mL (≈ 7.16 mM); solubility at 24 h [3, 10]: 3.06 mg/mL (≈ 6.45 mM); solubility at 3 h [3, 11]: 23 mg/mL (≈ 48.5 mM); solubility at 24 h [3, 11]: 22 mg/mL (≈ 46.4 mM); solubility at 3 h [3, 12]: 23.1 ± 0.12 mg/mL (≈ 48.7 mM); solubility at 24 h [3, 12]: 21.9 ± 0.23 mg/mL (≈ 46.1 mM); solubility ([4]; 0.1M phosphate acid, pH 3.3, aqueous buffer, 0.1M phosphate acid, pH=3.3, read-out: solubility in 0.1M phosphate acid): > 40 mg/mL; solubility ([4]; 0.1M phosphate acid, pH 3.5, aqueous buffer, 0.1M phosphate acid, pH=3.5, read-out: solubility in 0.1M phosphate acid): 12 mg/mL (≈ 25.3 mM); solubility ([4]; 0.1 M phosphoric acid, pH 3.3, aqueous buffer, ambient temperature, pH of about 3.3 (0.1 M phosphoric acid), read-out: solubility in water (0.1 M phosphoric acid)): > 40 mg/mL; solubility ([4]; 0.1 M phosphoric acid, pH 3.5, aqueous buffer, ambient temperature, pH of about 3.5 (0.1 M phosphoric acid), read-out: solubility in water (0.1 M phosphoric acid)): ~12 mg/mL (≈ 25.3 mM); solubility ([4]; 0.1N HCl, pH 2, simulated gastric fluid, 0.1N HCl, pH about 2, read-out: solubility in 0.1N HCl): 24.9 mg/mL (≈ 52.5 mM); solubility ([4]; water, pH 3.8, water, ambient temperature, water with a pH of about 3.8, read-out: solubility in water): ~24 mg/mL (≈ 50.6 mM); solubility ([4]; water, pH 3.8, water, water, pH=3.8, read-out: solubility in water): 24 mg/mL (≈ 50.6 mM); solubility ([4]; water, pH 4.2, water, ambient temperature, water with a pH of about 4.2, read-out: solubility in water): > 41 mg/mL; solubility ([4]; water, pH 4.2, water, water, pH=4.2, read-out: solubility in water): > 41 mg/mL; physical stability [5]: physically stable; physical stability (appearance) [5]: deliquesced and became brown in color; Water content ([5]; 23.1% RH (saturated KOAc)): 3.2%; Water content ([5]; 43.3% RH (saturated K2CO3)): 5.0%; Water content ([5]; 54.4% RH (saturated Mg(NO3)2)): 6.2%; Water content ([5]; 75.5% RH (saturated NaCl)): 8.2%; Water content ([5]; 85.1% RH (saturated KCl), listed as Amorphous Mono-HCl Salt of Compound A1): 9.5%; Water content ([5]; 85.1% RH (saturated KCl), listed as amorphous mono-HCl salt): 9.5%; Water content ([5]; 97.3% RH (saturated K2SO4)): 14.7%; water content (Karl-Fisher) of the resulting material ([5]; after 17 days at 25° C./60% RH (open)): 6.1%; water content of the initial material ([5]; initial material, before storage): about 2.8%

**Q.** What does the source list for `CCN(CC)C(=O)c1ccc([C@H](c2cccc(N)c2)N2CCN(Cc3ccc(F)cc3)CC2)cc1` [Compound A1, 4-{(R)-(3-aminophenyl)[4-(4-fluorobenzyl)piperazin-1-yl]methyl}-N,N-diethylbenzamide]?
**A.** pKa [6]: 7.26; logD [7]: 2.53; sedative/hyperactive properties ([8]; observations of test subjects in their home cage): does not possess sedative/hyperactive properties; efficacy in the model ([8]; rat, 0.21 μmol/kg): not effective; Percent of Control: Punished responding ([8]; rat, 0.21 μmol/kg by mouth): 107 ± 19.3% of Control; Percent of Control: Unpunished responding ([8]; rat, 0.21 μmol/kg by mouth): 103 ± 1.63% of Control; Rate of Responding: Punished responding ([8]; rat, 0.21 μmol/kg by mouth): 0.11 ± 0.02; Rate of Responding: Unpunished responding ([8]; rat, 0.21 μmol/kg by mouth): 2.06 ± 0.11; Percent of Control: Punished responding ([8]; rat, 0.63 μmol/kg by mouth): 273 ± 39.2% of Control; Percent of Control: Unpunished responding ([8]; rat, 0.63 μmol/kg by mouth): 92.1 ± 5.12% of Control; Rate of Responding: Punished responding ([8]; rat, 0.63 μmol/kg by mouth): 0.24 ± 0.03; Rate of Responding: Unpunished responding ([8]; rat, 0.63 μmol/kg by mouth): 2.02 ± 0.14; Percent of Control: Punished responding ([8]; rat, 2.1 μmol/kg by mouth): 298 ± 132% of Control; Percent of Control: Unpunished responding ([8]; rat, 2.1 μmol/kg by mouth): 106 ± 5.60% of Control; Rate of Responding: Punished responding ([8]; rat, 2.1 μmol/kg by mouth): 0.18 ± 0.04; Rate of Responding: Unpunished responding ([8]; rat, 2.1 μmol/kg by mouth): 1.95 ± 0.15; increase in punished responding (maximally efficacious dose) ([8]; rat, 2.11 μmol/kg): about 300%; Percent of Control: Punished responding ([8]; rat, 6.3 μmol/kg by mouth): 207 ± 67.2% of Control; Percent of Control: Unpunished responding ([8]; rat, 6.3 μmol/kg by mouth): 106 ± 2.94% of Control; Rate of Responding: Punished responding ([8]; rat, 6.3 μmol/kg by mouth): 0.17 ± 0.03; Rate of Responding: Unpunished responding ([8]; rat, 6.3 μmol/kg by mouth): 1.92 ± 0.13; Percent of Control: Punished responding ([8]; rat, 21.1 μmol/kg by mouth): 272 ± 100% of Control; Percent of Control: Unpunished responding ([8]; rat, 21.1 μmol/kg by mouth): 95.5 ± 4.08% of Control; Rate of Responding: Punished responding ([8]; rat, 21.1 μmol/kg by mouth): 0.20 ± 0.04; Rate of Responding: Unpunished responding ([8]; rat, 21.1 μmol/kg by mouth): 1.69 ± 0.12; effect on unpunished responding ([8]; rat, at the doses tested (0.21 to 21.1 μmol/kg)): did not significantly decrease
